Measured values reported in US8592600B2, “Solid state forms of racemic ilaprazole” (Il Yang Pharmaceutical Company, Ltd., priority 2006, dated 2013).
Entries after “also recorded” stand apart in the source; their conditions may differ. Blank lines part the entries; values can stand above or below the compound they belong to.

Assays:
[1] = Solubility of racemic ilaprazole forms in various ethanol solutions (100-50% ethanol) with various apparent pHs, 1 hour; assay type: physicochemical; details: comparison between Forms A, B, F
Method: The solubility of racemic ilaprazole, Forms A, B, and F, were analyzed by exposing them to various ethanol solutions having various pHs for 1 hour. Duplicate analysis was performed for each sample on a second day. The solubility in 100% ethanol (with no pH adjustment) is shown in the first column. Various other aqueous solutions (87.5%, 75%, 62.5%, and 50% ethanol) with varying apparent pHs (7, 8, 9, 10, and 11) were also evaluated. All of the values below are the average of two duplicate preparations analyzed on different days.

[2] = Bioavailability study of ilaprazole from 40-mg delayed-release tablets, plasma pharmacokinetics; assay type: in vivo, human; details: for t1/2z, harmonic mean / tlag, Mean / tmax, Mean: single 5 mg oral dose (table title; text: 40 mg delayed-release tablet); for mean AUC, rank among forms / mean Cmax, rank among forms / mean apparent oral clearance, rank among forms / mean apparent volume of distribution, rank among forms / mean AUC∞ lower than value observed for Form A / mean Cmax lower than value observed for Form A: single 40 mg oral dose; for AUC lower than Form A, point estimate / Cmax lower than Form A, point estimate: ANOVA point estimate, relative to 40-mg tablet as Form A; for half-life, relative: humans, Forms A, B, F compared; for mean AUC∞ lower than value observed for Form A / mean Cmax lower than value observed for Form A: mean values; for lower bound of 90% confidence interval for ratio of central values, AUC / lower bound of 90% confidence interval for ratio of central values, AUC∞ / lower bound of 90% confidence interval for ratio of central values, Cmax: relative to Form A (Regimen A), bioequivalence limit 0.80; for AUCt, Point Estimate (ratio of central values) vs. Regimen A / AUC∞, Point Estimate (ratio of central values) vs. Regimen A / Cmax, Point Estimate (ratio of central values) vs. Regimen A: relative to Regimen A (Form A), Regimen B = Form B, Regimen C = Form F, single 40-mg delayed-release tablet
Excerpt: The bioavailability of ilaprazole from delayed-release tablets containing racemic ilaprazole, Form A, F, and B. This study were to assessed the bioavailability of ilaprazole from ilaprazole 40-mg delayed-release tablets manufactured as described in Example 8.
The subjects were randomly assigned in equal numbers to one of three sequence groups (Table 32).
Subjects received all regimens in a crossover fashion, according to the sequence group to which they were randomized. For each period, confinement began on Day 1 and ended on Day 2 after all procedures had been completed. There was a washout interval of at least 5 days between the doses of each period. Each subject received 3 doses of racemic ilaprazole 40 mg, each dose administered with 240 mL of water. On Day 1 of each period, subjects received the regimen to which they had been assigned at approximately 0800 hours. Subjects were fasted for 10 hours prior to dosing and remained fasted until 4 hours postdose when a standardized lunch was served.
Ilaprazole, ilaprazole sulfide and ilaprazole sulfone plasma concentrations were determined from 3 mL blood samples collected starting on Day 1 at 0 hour (predose), and 0.5, 1, 1.5, 2, 3, 4, 5, 6, 8, 10, 12, 14, 16, 20, 24, 28 and 32 hours postdose in each period. Plasma concentrations of ilaprazole were determined using a validated LC-MS/MS method at PPD (Middleton, Wis.). The lower limit of quantitation (LLOQ) for ilaprazole and its metabolites was 5.00 ng/mL with a 0.100 mL aliquot of plasma.
Pharmacokinetic parameters for ilaprazole were estimated using standard noncompartmental methods with WinNonlin Professional Version 4.1 (Pharsight Co., Mountain View, Calif.).
Pharmacokinetic endpoints included time to reach the first quantifiable concentration (tlag), time to reach the peak concentration (tmax), the peak plasma concentration (Cmax), area under the plasma concentration versus time curve (AUC) from time zero to the last quantifiable concentration (AUCt) and to infinity (AUC∞), terminal-phase elimination half-life (t1/2z), apparent oral clearance (CL/F) and apparent volume of distribution (Vz/F).
For ilaprazole tlag, tmax, and the natural logarithms of Cmax and AUCs, an analyses of variance (ANOVA) model was fitted that included fixed effects of sequence, period, and crystal form as well as a random effect of subject nested within sequence. Pairwise comparisons between racemic ilaprazole, Forms B or F and Form A, were conducted. Ninety percent confidence intervals for relative bioavailability between regimens were computed.

[3] = Dynamic Vapor Sorption/Desorption (DVS); assay type: physicochemical; details: for weight loss at 5% RH / weight loss from 95 to 5% RH / weight gain from 5 to 95% RH: DVS isotherm; for weight loss from 95 to 5% RH: desorption; for weight gain from 5 to 95% RH: sorption
Method: Dynamic Vapor Sorption/Desorption (DVS): Data were collected on a VTI SGA-100 moisture balance system. For sorption isotherms, a sorption range of 5 to 95% relative humidity (RH) and a desorption range of 95 to 5% RH in 10% RH increments were used for analysis. The samples were not dried prior to analysis. Equilibrium criteria used for analysis were less than 0.0100% weight change in 5 minutes with a maximum equilibration time of 3 hours if the weight criterion was not met. Data were not corrected for the initial moisture content of the samples.

[4] = Solid state stability of the crystalline forms; assay type: physicochemical
gastric acid = experiment: Phase 1 and Phase 2 clinical studies conducted with ilaprazole; assay type: in vivo, human
[5] = Dissolution rate of delayed release tablets, 40 mg (USP <711>, Delayed Release Method A); assay type: physicochemical; details: 40 mg tablet, dissolution buffer
Method: Delayed release tablets containing 40 mg racemic ilaprazole, Form A, B, or F, were prepared and the dissolution rates of the tablets studied. The tablets were identical, with the exception of the crystalline form of ilaprazole. The qualitative and quantitative compositions of racemic ilaprazole delayed release tablets, 40 mg (inclusive of the compositions made using Forms A, B, and F) are described in Table 30. The dissolution rate procedure was modified to be consistent with USP <711>, Delayed Release Method A and to change the UV detection wavelength in the acid stage of the test. For the acid stage, a wavelength of 340 nm was used, and for the buffer stage, a wavelength of 306 nm was used. The desired dissolution profile was Q=70% in 60 minutes.

[6] = human, plasma, po, 40 mg, plasma ilaprazole, healthy adult subjects, single 40 mg oral dose (table title; text: 40 mg delayed-release tablet), fasted
[7] = plasma ilaprazole, healthy adult subjects, fasted
[8] = plasma ilaprazole, healthy adult subjects, single 40 mg oral dose (table title; text: 40 mg delayed-release tablet), fasted

Compound: COc1ccnc(C[S+]([O-])c2nc3cc(-n4cccc4)ccc3[nH]2)c1C (racemic) [Form A, 2[[(4-methoxy-3-methyl-2-pyridinyl)-methyl]sulfinyl]-5-(1H-pyrrol-1-yl) 1H-Benzimidazole]
- relative solubility in aqueous solutions/solvents [1]: A<F<B; also recorded: least soluble in aqueous solutions
- AUC(0-inf) [2, 6]: 5450 ng·h/mL
- AUC(0-t) [2, 6]: 5070 ng·h/mL
- Cmax [2, 6]: 652 ng/mL
- Tmax [2, 6]: 4.14 h
- Vd/F ([2]; human, plasma, po, 40 mg, plasma ilaprazole, healthy adult subjects, single 40 mg oral dose (table title; text: 40 mg delayed-release tablet), fasted, read-out: Vz/F, Mean): 112 L
- t1/2z, harmonic mean [2, 7]: (6.95) h
- tlag, Mean [2, 7]: 1.16 h
- CL/F, Mean [2, 8]: 9.34 L/h
- t1/2z, arithmetic mean [2, 8]: 8.89 h
- mean AUC, rank among forms [2]: highest
- mean Cmax, rank among forms [2]: highest
- mean apparent oral clearance, rank among forms [2]: lowest
- mean apparent volume of distribution, rank among forms [2]: lowest
- hygroscopicity [3]: not hygroscopic
- weight loss at 5% RH [3]: 0.06%
- weight loss from 95 to 5% RH [3]: 0.13%
- weight gain from 5 to 95% RH [3]: 0.10%
- thermodynamic stability among crystalline forms [4]: most thermodynamically stable

Compound: COc1ccnc(C[S+]([O-])c2nc3cc(-n4cccc4)ccc3[nH]2)c1C (stereo not shown) [ilaprazole, 2[[(4-methoxy-3-methyl-2-pyridinyl)-methyl]sulfinyl]-5-(1H-pyrrol-1-yl) 1H-Benzimidazole]
- suppression of gastric acid (gastric acid; Phase 1 clinical studies, at the doses studied): suppression of gastric acid occurs over a 24-hour period
- healing of acid-related gastric and duodenal ulcers (gastric acid; Phase 2 clinical studies): promoted rapid healing
- symptomatic relief (gastric acid; Phase 2 clinical studies, patients with gastric-acid related disorders): provided symptomatic relief

Compound: COc1ccnc(C[S+]([O-])c2nc3cc(-n4cccc4)ccc3[nH]2)c1C (racemic) [Form I, 2[[(4-methoxy-3-methyl-2-pyridinyl)-methyl]sulfinyl]-5-(1H-pyrrol-1-yl) 1H-Benzimidazole]
- weight loss at 5% RH [3]: 0.1%
- weight loss from 95 to 5% RH [3]: 4.2%
- weight gain from 5 to 95% RH [3]: 4.2%

Continued, in another order:

- AUC lower than Form A, point estimate [2]: 15-17%
- Cmax lower than Form A, point estimate [2]: approximately 15%
- half-life, relative [2]: longest half-life
- mean AUC∞ lower than value observed for Form A [2]: ~14%
- mean Cmax lower than value observed for Form A [2]: approximately 15%
- t1/2z, harmonic mean [2, 7]: (7.29) h
- tlag, Mean [2, 7]: 1.18 h
- tmax, Mean [2, 7]: 4.01 h
- AUCt, Mean [2, 8]: 4256.66 ng·h/mL
- AUC∞, Mean [2, 8]: 4672.37 ng·h/mL
- CL/F, Mean [2, 8]: 11.29 L/h
- Cmax, Mean [2, 8]: 554.18 ng/mL
- t1/2z, arithmetic mean [2, 8]: 9.66 h
- lower bound of 90% confidence interval for ratio of central values, AUC [2]: < 0.80
- lower bound of 90% confidence interval for ratio of central values, AUC∞ [2]: < 0.80
- lower bound of 90% confidence interval for ratio of central values, Cmax [2]: < 0.80
- AUCt, Point Estimate (ratio of central values) vs. Regimen A [2]: 0.8288
- AUC∞, Point Estimate (ratio of central values) vs. Regimen A [2]: 0.8456
- Cmax, Point Estimate (ratio of central values) vs. Regimen A [2]: 0.8456
- hygroscopicity [3]: slightly hygroscopic
- weight loss at 5% RH [3]: 0.04%
- weight loss from 95 to 5% RH [3]: 1.33%
- weight gain from 5 to 95% RH [3]: 1.05%
Compound: COc1ccnc(C[S+]([O-])c2nc3cc(-n4cccc4)ccc3[nH]2)c1C (racemic) [Form F, 2[[(4-methoxy-3-methyl-2-pyridinyl)-methyl]sulfinyl]-5-(1H-pyrrol-1-yl) 1H-Benzimidazole]
- relative solubility in aqueous solutions/solvents [1]: A<F<B; also recorded: more soluble in aqueous solvents than Form A

- AUC lower than Form A, point estimate [2]: ~24%
- Cmax lower than Form A, point estimate [2]: approximately 17%
- half-life, relative [2]: greater half-life than Form A
- mean AUC∞ lower than value observed for Form A [2]: ~25%
- mean Cmax lower than value observed for Form A [2]: approximately 20%
- t1/2z, harmonic mean [2, 7]: (7.76) h
- tlag, Mean [2, 7]: 1.22 h
- tmax, Mean [2, 7]: 3.50 h
- AUCt, Mean [2, 8]: 3812.50 ng·h/mL
- AUC∞, Mean [2, 8]: 4087.99 ng·h/mL
- CL/F, Mean [2, 8]: 11.70 L/h
- Cmax, Mean [2, 8]: 522.51 ng/mL
- t1/2z, arithmetic mean [2, 8]: 9.48 h
- lower bound of 90% confidence interval for ratio of central values, AUC [2]: < 0.80
- lower bound of 90% confidence interval for ratio of central values, AUC∞ [2]: < 0.80
- lower bound of 90% confidence interval for ratio of central values, Cmax [2]: < 0.80
- AUCt, Point Estimate (ratio of central values) vs. Regimen A [2]: 0.7630
- AUC∞, Point Estimate (ratio of central values) vs. Regimen A [2]: 0.7609
- Cmax, Point Estimate (ratio of central values) vs. Regimen A [2]: 0.8292
- mean AUC, rank among forms [2]: lowest
- mean Cmax, rank among forms [2]: lowest
- mean apparent oral clearance, rank among forms [2]: highest
- mean apparent volume of distribution, rank among forms [2]: highest
- hygroscopicity [3]: not hygroscopic
- weight loss at 5% RH [3]: 0.03%
- weight loss from 95 to 5% RH [3]: 0.00%
- weight gain from 5 to 95% RH [3]: 0.04%
- long term stability or shelf life [4]: good long term stability or shelf life
Compound: COc1ccnc(C[S+]([O-])c2nc3cc(-n4cccc4)ccc3[nH]2)c1C (racemic) [Form B, 2[[(4-methoxy-3-methyl-2-pyridinyl)-methyl]sulfinyl]-5-(1H-pyrrol-1-yl) 1H-Benzimidazole]
- relative solubility in aqueous solutions/solvents [1]: A<F<B; also recorded: more soluble in aqueous solvents than Form A
- dissolution of delayed release tablet, relative [5]: relatively slower dissolution profile; also recorded: slower to wet and dissolve in the dissolution buffer than Form A and Form F
